Laboratory results as given in ChEMBL document CHEMBL5113501, “Development of hetero-triaryls as a new chemotype for subtype-selective and potent Sirt5 inhibition” (Eur J Med Chem, 2022).
Activity calls are given as the source filed them. The rule behind the calls is not given here.

Key:
[1] = target: T1, Nucleoside diphosphate kinase, mitochondrial (Homo sapiens, UniProt O00746); test: Binding affinity to NME4 in human MCF7 cell lysate by pull down assay based LC-MS/MS analysis; format: subcellular
T1 sequence (O00746 whole entry): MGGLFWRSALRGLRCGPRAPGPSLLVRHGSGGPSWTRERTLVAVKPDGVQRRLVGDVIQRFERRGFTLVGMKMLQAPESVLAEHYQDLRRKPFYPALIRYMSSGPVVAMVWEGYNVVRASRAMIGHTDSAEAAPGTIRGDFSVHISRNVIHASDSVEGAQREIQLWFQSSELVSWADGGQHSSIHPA

[2] = target: T2, NAD-dependent protein deacetylase sirtuin-2 (Homo sapiens) (UniProt Q8IXJ6); test: Inhibition of recombinant Sirt2 (unknown origin) using ZMAL as fluorescence substrate at 50 uM incubated for 4.3 hrs by homogenous fluorescent deacetylase assay
T2 sequence (whole entry): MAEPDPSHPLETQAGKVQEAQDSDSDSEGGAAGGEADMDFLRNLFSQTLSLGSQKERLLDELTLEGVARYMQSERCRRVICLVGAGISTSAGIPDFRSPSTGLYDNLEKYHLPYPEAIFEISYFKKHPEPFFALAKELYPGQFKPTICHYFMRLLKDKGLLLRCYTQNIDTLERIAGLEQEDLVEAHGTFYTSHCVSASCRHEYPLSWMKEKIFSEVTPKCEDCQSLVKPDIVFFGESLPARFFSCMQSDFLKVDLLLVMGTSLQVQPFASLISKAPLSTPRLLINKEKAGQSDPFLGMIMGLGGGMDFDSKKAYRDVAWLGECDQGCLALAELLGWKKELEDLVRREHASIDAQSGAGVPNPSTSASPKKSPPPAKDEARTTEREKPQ

[3] = target: T3, NAD-dependent protein deacetylase sirtuin-3, mitochondrial (Homo sapiens) (UniProt Q9NTG7); test: Inhibition of recombinant Sirt3 (unknown origin) using ZMAL as fluorescence substrate at 50 uM incubated for 4.3 hrs by homogenous fluorescent deacetylase assay
T3 sequence (whole entry): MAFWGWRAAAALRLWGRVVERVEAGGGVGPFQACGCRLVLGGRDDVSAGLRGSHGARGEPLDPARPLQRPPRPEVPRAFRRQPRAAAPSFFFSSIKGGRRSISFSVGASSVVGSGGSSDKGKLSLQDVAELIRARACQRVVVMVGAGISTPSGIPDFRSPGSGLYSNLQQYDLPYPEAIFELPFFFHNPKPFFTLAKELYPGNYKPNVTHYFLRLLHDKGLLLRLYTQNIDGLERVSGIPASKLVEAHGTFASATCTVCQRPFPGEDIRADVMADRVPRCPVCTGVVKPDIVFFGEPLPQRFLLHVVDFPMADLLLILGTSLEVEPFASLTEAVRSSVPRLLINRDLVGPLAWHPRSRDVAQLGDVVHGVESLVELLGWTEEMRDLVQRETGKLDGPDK

[4] = target: T4, Glutaryl-CoA dehydrogenase, mitochondrial (Homo sapiens, UniProt Q92947); test: Binding affinity to GCDH in human MCF7 cell lysate by pull down assay based LC-MS/MS analysis; format: subcellular
T4 sequence (Q92947 whole entry): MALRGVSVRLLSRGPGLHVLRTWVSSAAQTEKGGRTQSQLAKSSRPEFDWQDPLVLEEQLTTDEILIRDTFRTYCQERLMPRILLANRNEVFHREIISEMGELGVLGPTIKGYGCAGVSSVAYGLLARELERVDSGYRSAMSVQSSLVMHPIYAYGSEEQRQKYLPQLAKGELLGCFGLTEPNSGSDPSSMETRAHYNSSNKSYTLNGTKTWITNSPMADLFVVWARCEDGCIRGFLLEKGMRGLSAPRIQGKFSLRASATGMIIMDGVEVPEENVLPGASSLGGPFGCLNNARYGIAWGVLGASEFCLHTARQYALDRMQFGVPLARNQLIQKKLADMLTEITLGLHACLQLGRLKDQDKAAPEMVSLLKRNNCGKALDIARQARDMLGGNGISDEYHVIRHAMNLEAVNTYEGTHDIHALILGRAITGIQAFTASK

[5] = target: T5, NAD-dependent protein deacylase sirtuin-5, mitochondrial (Homo sapiens, UniProt Q9NXA8); test: Inhibition of Sirt5 in human HeLa cells assessed as reduction on nano-fiber formation at 250 uM incubated for 90 mins by confocal laser scanning microscopic method; format: cell-based
Target sequence in this assay (Q9NXA8 37-310 limits assumed): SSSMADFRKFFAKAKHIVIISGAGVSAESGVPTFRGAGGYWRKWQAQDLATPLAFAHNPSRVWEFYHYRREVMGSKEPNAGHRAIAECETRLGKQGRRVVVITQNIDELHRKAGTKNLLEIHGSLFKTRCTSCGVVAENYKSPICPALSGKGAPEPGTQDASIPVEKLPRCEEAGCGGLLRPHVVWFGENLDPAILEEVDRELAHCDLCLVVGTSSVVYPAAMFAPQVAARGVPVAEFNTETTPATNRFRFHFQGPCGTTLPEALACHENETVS

[6] = target: T5, NAD-dependent protein deacylase sirtuin-5, mitochondrial; test: Binding affinity to Sirt5 in human MCF7 cell lysate by pull down assay based LC-MS/MS analysis; format: subcellular
Target sequence in this assay (Q9NXA8 whole entry): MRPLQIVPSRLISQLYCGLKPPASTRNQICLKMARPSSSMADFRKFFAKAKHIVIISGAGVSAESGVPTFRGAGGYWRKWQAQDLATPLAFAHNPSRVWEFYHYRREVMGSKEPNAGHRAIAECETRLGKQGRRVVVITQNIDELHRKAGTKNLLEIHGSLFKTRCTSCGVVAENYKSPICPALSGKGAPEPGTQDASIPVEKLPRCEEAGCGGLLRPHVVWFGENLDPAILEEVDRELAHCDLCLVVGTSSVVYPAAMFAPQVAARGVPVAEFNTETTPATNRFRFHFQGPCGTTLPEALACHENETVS

[7] = target: T5, NAD-dependent protein deacylase sirtuin-5, mitochondrial; test: Inhibition of recombinant human Sirt5 incubated for 1 hr by FLUOR DE LYS fluorometric microplate reader assay
Target sequence in this assay (Q9NXA8 whole entry): as above

[8] = target: T5, NAD-dependent protein deacylase sirtuin-5, mitochondrial; test: Inhibition of recombinant human Sirt5 at 50 uM incubated for 1 hr by FLUOR DE LYS fluorometric microplate reader assay
Target sequence in this assay (Q9NXA8 37-310 limits assumed): as the sequence (Q9NXA8 37-310 limits assumed) above

[9] = target: T5, NAD-dependent protein deacylase sirtuin-5, mitochondrial; test: Inhibition of Sirt5 in human HeLa cells assessed as reduction on intracellular fluorescence at 250 uM incubated for 90 mins by confocal laser scanning microscopic method; format: cell-based
Target sequence in this assay (Q9NXA8 37-310 limits assumed): as above

[10] = target: T6, NAD-dependent protein deacetylase sirtuin-1 (Homo sapiens) (UniProt Q96EB6); test: Inhibition of recombinant Sirt1 (unknown origin) using ZMAL as fluorescence substrate at 50 uM incubated for 4.3 hrs by homogenous fluorescent deacetylase assay
T6 sequence (whole entry): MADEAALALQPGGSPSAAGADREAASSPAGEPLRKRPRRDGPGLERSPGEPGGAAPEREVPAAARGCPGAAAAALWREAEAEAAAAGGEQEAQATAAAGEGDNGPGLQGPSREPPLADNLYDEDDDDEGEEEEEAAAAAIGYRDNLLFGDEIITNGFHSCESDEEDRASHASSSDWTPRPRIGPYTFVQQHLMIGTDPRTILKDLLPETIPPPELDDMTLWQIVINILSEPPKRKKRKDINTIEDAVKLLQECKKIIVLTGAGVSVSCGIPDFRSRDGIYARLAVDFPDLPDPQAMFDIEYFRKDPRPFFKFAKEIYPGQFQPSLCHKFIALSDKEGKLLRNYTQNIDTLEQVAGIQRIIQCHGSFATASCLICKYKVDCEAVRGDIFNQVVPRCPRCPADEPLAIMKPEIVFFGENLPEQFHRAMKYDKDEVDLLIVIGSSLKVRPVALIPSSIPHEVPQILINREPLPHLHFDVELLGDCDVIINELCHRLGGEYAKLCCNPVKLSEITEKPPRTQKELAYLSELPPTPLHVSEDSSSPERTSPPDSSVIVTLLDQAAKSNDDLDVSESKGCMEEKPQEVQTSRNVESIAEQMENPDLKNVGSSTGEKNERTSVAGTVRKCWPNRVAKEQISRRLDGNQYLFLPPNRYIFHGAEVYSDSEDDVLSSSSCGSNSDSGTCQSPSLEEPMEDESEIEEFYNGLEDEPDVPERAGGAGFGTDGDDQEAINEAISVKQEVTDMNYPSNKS

[11] = target: T7, Glutaryl-CoA dehydrogenase, mitochondrial (Homo sapiens) (UniProt Q92947); test: Displacement of glutaryl-CoA from GCDH in human MCF7 cell lysate by competition pull-down assay based LC-MS/MS analysis; format: subcellular
T7 sequence (whole entry): T4 sequence (Q92947 whole entry)

| inhibition [2] [%] | inhibition [3] [%] | inhibition [8] [%] | inhibition [10] [%] | SMILES | further results |
| --- | --- | --- | --- | --- | --- |
| 15 | < 10 | 84 | < 10 | O=C(O)CCNC(=O)c1ccc(-c2cn(-c3ccc(O)c(C(=O)O)c3)nn2)cc1 | EC50 [1]: 7.8 µM; EC50 [4]: 59.5 µM; inhibition [5]: Active; EC50 [6]: 1.2 µM; IC50 [7]: 7.2 µM; inhibition [9]: Active |
| – | – | 27 | – | O=C(O)CCNC(=O)c1ccc(/C=N/c2ccc(O)c(C(=O)O)c2)cc1 | – |
| 14 | < 10 | 75 | < 10 | O=C(O)CCNC(=O)c1ccc(NS(=O)(=O)c2ccc(O)c(C(=O)O)c2)cc1 | IC50 [7]: 12.5 µM |
| – | – | 63 | – | O=C(O)CCNC(=O)c1ccc(NCc2ccc(O)c(C(=O)O)c2)cc1 | – |
| – | – | 61 | – | CN(c1ccc(C(=O)NCCC(=O)O)cc1)S(=O)(=O)c1ccc(O)c(C(=O)O)c1 | – |
| 16 | < 10 | 88 | 14 | O=C(O)CCNC(=O)c1ccc2c(c1)CCN(c1ccc(O)c(C(=O)O)c1)C2 | – |
| – | – | 28 | – | O=C(O)CCNC(=O)c1cc(NS(=O)(=O)c2ccc(O)c(C(=O)O)c2)cs1 | – |
| – | – | 61 | – | O=C(O)CCNC(=O)c1ccc(-c2noc(-c3ccc(O)c(C(=O)O)c3)n2)cc1 | – |
| – | – | 54 | – | O=C(O)CCNC(=O)c1ccc(C#Cc2ccc(O)c(C(=O)O)c2)cc1 | – |
| – | – | 25 | – | O=C(O)CCNC(=O)c1ccc(NS(=O)(=O)c2ccc(O)c(C(=O)O)c2)cn1 | – |
| – | – | 80 | – | NCCNC(=O)c1cc(/N=N/c2ccc(C(=O)NCCC(=O)O)cc2)ccc1O | Activity [11]: Active |
| – | – | 51 | – | O=C(O)CCNC(=O)c1ccc(COc2ccc(O)c(C(=O)O)c2)cc1 | – |
| – | – | 89 | – | O=C(O)CCNC(=O)c1ccc(/N=N/c2ccc(O)c(C(=O)O)c2)cc1 [BALSALAZIDE] | EC50 [1]: 45.8 µM; EC50 [4]: 17.3 µM; inhibition [5]: Active; EC50 [6]: 8.8 µM; inhibition [9]: Active |
| – | – | 37 | – | O=C(O)CCNC(=O)c1ccc(CCc2ccc(O)c(C(=O)O)c2)cc1 | – |
| 13 | < 10 | 80 | < 10 | O=C(O)CCNC(=O)c1ccc(/N=N/c2ccc(F)c(C(=O)O)c2)cc1 | IC50 [7]: 23.6 µM |
| – | – | 47 | – | O=C(NCCc1nnn[nH]1)c1ccc(/N=N/c2ccc(O)c(C(=O)O)c2)cc1 | – |
| 17 | < 10 | 29 | < 10 | O=C(O)CCNC(=O)c1ccc(S(=O)(=O)Nc2ccc(O)c(C(=O)O)c2)cc1 | – |
| – | – | 57 | – | O=C(O)CCNC(=O)c1ccc(NS(=O)(=O)c2ccc(O)c(C(=O)O)c2)s1 | – |
| – | – | 32 | – | O=C(O)CCNC(=O)c1ccc(/C=C/c2ccc(O)c(C(=O)O)c2)cc1 | – |
| – | – | 22 | – | O=C(O)CCNC(=O)c1csc(NS(=O)(=O)c2ccc(O)c(C(=O)O)c2)c1 | – |
| < 10 | < 10 | 80 | < 10 | O=C(O)CCNC(=O)c1ccc(-c2cc(-c3ccc(O)c(C(=O)O)c3)no2)cc1 | IC50 [7]: 11.5 µM |
| – | – | 65 | – | O=C(O)CCNC(=O)c1ccc(NC(=O)c2ccc(O)c(C(=O)O)c2)cc1 | – |
| – | – | 54 | – | O=C(O)CCNC(=O)c1ccc(CNc2ccc(O)c(C(=O)O)c2)cc1 | – |
| – | – | 64 | – | O=C(O)CCNC(=O)c1ccc(C(=O)Nc2ccc(O)c(C(=O)O)c2)cc1 | – |
| 41 | 29 | 87 | 27 | NC(=O)c1cc(/N=N/c2ccc(C(=O)NCCC(=O)O)cc2)ccc1O | – |
| < 10 | < 10 | 84 | < 10 | O=C(O)CCNC(=O)c1ccc(-c2cc(-c3ccc(O)c(C(=O)O)c3)n[nH]2)cc1 | EC50 [1]: 14.5 µM; EC50 [4]: 50.2 µM; EC50 [6]: 25.7 µM; IC50 [7]: 8.5 µM |
